Assay results taken from patent US20080145313A1, “Compositions and Methods for the Treatment and Prevention of Neoplastic Disorders” (Genesis Research & Development Corporation Limited, priority 2006, published 2008).

What was measured:
HCT-116 p53 null cells = experiment: Growth inhibition of siRNA-transfected p53 null HCT-116 cells, SYBR Green I DNA content; type: cell-based
Description: (§1) A549 cells (human lung cancer cell line; ATCC No. CCL-185), SK-MeI-5 cells (human melanoma cell line; ATCC No. HTB-70), MCF-7 cells (human adenocarcinoma cell line; ATCC No. HTB-22), HCT-116 cells (colorectal carcinoma; ATCC CCL-247) and HCT-116 p53 null cells (derived from ATCC No. CCL-247; Bunz et al., Science 282:1497-1501, 1998) were cultured in RPMI 1640 medium with 10% v/v heat-inactivated fetal calf serum (FCS). Cells were seeded at a density of 5×10^4 cells/cm^2 in multi-well tissue culture plates. Sequences of Stealth™ siRNA duplexes (Invitrogen) targeting human ribonucleotide reductase subunit 1 (SEQ ID NO: 22) and subunit 2 (SEQ ID NO; 38) are given in SEQ ID NO: 4830-4832 (DNA), and SEQ ID NO: 5136-5138 (RNA) for RRM1, and SEQ ID NO: 5306-5308 (DNA), and SEQ ID NO: 5303-5305 (RNA) for RRM2. siRNAs were transfected at different concentrations into cells using Lipofectamine™ RNAiMAX transfection reagent (Invitrogen). Non-specific siRNA (SEQ ID NO: 4804 and 4805 (DNA), and SEQ ID NO: 5301 and 5302 (RNA)) were used as controls. The cellular DNA content was measured using a SYBR Green I-based fluorometric assay at 24, 48, 72 and 96 hours after transfection (120 hours for the MCF-7 cells), as follows. At the indicated time points following reverse transfection, cells were harvested and frozen at −80° C. overnight. Cells were thawed and cell lysis buffer (phosphate-buffered saline (PBS) containing 1% Triton X-100, pH 7) and SYBR Green I (1:10^5 V/V; Invitrogen) was added to the wells and incubated overnight in the dark at 4° C.
(§2) The following day, cell lysates were mixed thoroughly, and DNA fluorescence was measured with a Wallac Victor^2 plate reader (Turku, Finland) set at an excitation frequency of 485 nm and measuring emission at 535 nm.
(§3) To determine the effect of the p53-status of cells on RRM1 and RRM2 knockdown, growth inhibition of wild type (wt) HCT-116 and p53 null HCT-116 cells by RRM1 and RRM2-targeted siRNA were determined. Cells were reverse transfected with 1.0 and 10 nM RRM1-3 (SEQ ID NO: 4832 (DNA), and SEQ ID NO: 5138 (RNA)), 1.0 and 10 nM RRM2-2 (SEQ ID NO: 5307 (DNA), and SEQ ID NO: 5304 (RNA)) or 10 nM control siRNA (SEQ ID NO: 4804 (DNA), and SEQ ID NO: 5301 (RNA)), and growth measured daily for up to 4 days post transfection.
(§4) siRNA-mediated RNAi was also determined on a panel of different cell lines. A549, SK-MeI-5, wt HCT-116, HCT-116−/−p53 and MCF-7 cells were transfected with 10 nM siRNAs targeting YBX-1 and growth inhibition determined as described above. The YBX1 siRNAs are given in SEQ ID NO: 4981 to 4985 (DNA) and SEQ ID NO: 5276-5280 (RNA). A non-specific siRNA (SEQ ID NO: 4804 (DNA) and SEQ ID NO: 5301 (RNA)) was used as control. Growth inhibition by the siRNAs, given in Table 14, was standardized against the inhibition obtained with the control siRNA.

wt HCT-116 cells = experiment: Growth inhibition of siRNA-transfected wt HCT-116 cells, SYBR Green I DNA content; type: cell-based
Description: as §1, §2, §3, §4
HCT-116 and A549 cells were transfected with 0.1, 1.0 and 10 nM siRNA targeting TYMS and DHFR (SEQ ID NO: 4833 to 4838 (DNA), and SEQ ID NO: 5139-5144 (RNA)) using Lipofectamine™ RNAiMAX and incubated for 96 h, in either normal fetal calf serum or serum dialyzed to remove low molecular weight molecules (cut-off 10 kDa). Growth of cells was measured by measuring the total DNA content per well using the SYBR Green assay as described above, and values are given as the percentage of the averaged control values. […] Inhibition increased with increasing siRNA concentration, which was not observed with a non-specific control siRNA. […]

A549 cells = experiment: Growth inhibition of siRNA-transfected A549 cells, SYBR Green I DNA content; type: cell-based, human
Summary of the method: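 Growth read-out: cellular DNA quantified with SYBR Green I (485/535 nm) 96 h after transfection, cells frozen, thawed and lysed in PBS/1% Triton X-100, pH 7. Cells (A549, 5×10^3 cells/cm^2) received 10 nM siRNA by RNAiMAX; non-specific siRNA served as control; triplicate wells averaged.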

HCT-15 cells = experiment: Effect of MDR1 knockdown on drug resistance of HCT-15 cells; type: cell-based; conditions: 10 nM siRNA; drug 72 h; compared with control siRNA
Description: HCT-15 cells, which express high endogenous levels of MDR1, were reverse transfected with MDR1-specific (SEQ ID NO: 4976 (DNA), and SEQ ID NO: 5271 (RNA)) or control siRNAs (SEQ ID NO: 4804 (DNA), and SEQ ID NO: 5301 (RNA)) at a final concentration of 10 nM. Lipofectamine-siRNA complexes were made by adding 0.3 μl Lipofectamine RNAiMAX in 10 μl RPMI to an equivalent volume of medium containing siRNA, such that the final siRNA concentration would be 10 nM. This mixture was incubated at room temperature for 20 minutes to allow complexes to form, after which time 1,500 HCT-15 cells in 100 μl RPMI supplemented with 10% FCS were added to the wells. […] Drugs used were Doxorubicin (Sigma, St. Louis Mo.), Paclitaxel (Invitrogen) and Etoposide (Sigma, St. Louis Mo.). At the conclusion of the assay, medium was removed and growth inhibition determined as described above.

[1] = system: target transcript mRNA in A549 cells; experiment: Level of mRNA of target transcript in A549 cells by quantitative RT-PCR (Tables 12 and 13); type: cell-based, human; conditions: 24 h post-transfection
Summary of the method: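 Target mRNA was measured by SYBR Green quantitative RT-PCR using random-primed cDNA, normalised to HPRT and Lamin. Samples came from A549 cells 24 h post-transfection with 0.1, 1.0 or 10 nM siRNA.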

SK-Mel-5 cells = experiment: Growth inhibition of siRNA-transfected SK-Mel-5 cells, SYBR Green I DNA content; type: cell-based, human
Description: as §1, §2
siRNA-mediated inhibition of cancer cell growth using siRNA targeting the YBX1 gene (SEQ ID NO: 92) was determined as follows. SK-MeI-5 cells were cultured in RPMI 1640 medium with 10% v/v heat-inactivated fetal calf serum. Cells were cultured as described above and reverse transfected with 0.1, 1.0, 10 and 40 nM (final concentration) of a pool of YBX1-targeting siRNAs (SEQ ID NO: 4982 and 4983 (DNA), and SEQ ID NO: 5277 and 5278 (RNA); referred to as 994 and 995 in FIG. 19) or a non-specific control (SEQ ID NO: 4804 (DNA), and SEQ ID NO: 5301 (RNA); referred to as Stealth 81 ctrl in FIG. 19), and cell growth determined after 120 h by measuring DNA fluorescence with a Wallac Victor^2 plate reader (Turku, Finland) set at an excitation frequency of 485 nm and measuring emission at 535 nm. Growth inhibition by the siRNA pool was standardized against the inhibition obtained with the control siRNAs.
as §4

YBX1 mRNA = YBX1 mRNA level by quantitative RT-PCR in A549 cells; type: cell-based, human; conditions: 10 nM siRNA; 24 h post-transfection
Description: A549 cells were transfected with 10 nM RRM1-1 (SEQ ID NO: 4830 (DNA), and SEQ ID NO: 5136 (RNA); light grey bar in FIG. 12A), RRM1-2 (SEQ ID NO: 4831 (DNA), and SEQ ID NO: 5137 (RNA); dark grey bar in FIG. 12A), RRM1-3 (SEQ ID NO: 4832 (DNA), and SEQ ID NO: 5138 (RNA); black bar in FIG. 12A) or control siRNA (SEQ ID NO: 4804 (DNA), and SEQ ID NO: 5301 (RNA)) (open bar in FIG. 12A) and relative mRNA levels quantified 24 h post-transfection. RNA was purified from cells using Trizol® extraction as per the manufacturer's protocol (Invitrogen). cDNA was prepared by digesting approximately 200 ng purified RNA with DNAse I (Invitrogen) for 15 minutes at room temperature, followed by 15 minutes at 65° C. in the presence of 25 mM EDTA. 30 ng random primers were added and incubated for 10 minutes at room temperature, 1 minute on ice; Superscript III polymerase (Invitrogen) was added in presence of 5 nM DTT (Sigma, St Louis, Mo.) and 1 mM deoxyribonucleotides (Invitrogen), and the reaction incubated at 25° C. for 5 minutes, followed by an hour at 55° C. cDNA was diluted 1:3 in 10 mM Tris pH 7.0, and quantitative RT-PCR carried out on an ABI Prism 7900HT (Applied Biosciences, Inc., Foster City, Calif.) using FastStart TaqMan SYBRGreen (Roche, Basel, Switzerland) and specific primers at 360 nM for RRM1 and RRM2 and the housekeeping genes HPRT and Lamin. Primer sequence pairs used for RRM1, RRM2, HPRT and lamin are given in SEQ ID NO: 4881 and 4882; 4883 and 4884; 4885 and 4886; 4887 and 4888 respectively.
A549 cells were transfected with 0.1, 1.0 and 10 nM siRNA (given in SEQ ID NO: 4981 to 4985 (DNA), and SEQ ID NO: 5276-5280 (RNA)) and the relative mRNA levels quantified 24 h post-transfection as described in Example 8.

[2] = 10 nM siRNA, standardized against control siRNA
[3] = 1 nM p53 siRNA with 1 nM YBX1 siRNA SEQ ID NO: 4982

## SEQ ID NO: 4832: Stealth siRNA targeting RRM1 (chain 1 ATTCAAAGATGTCTAAATGCCAAGG; chain 2 AUUCAAAGAUGUCUAAAUGCCAAGG; Stealth siRNA, chemical pattern not given here; one strand in two spellings)
HCT-116 p53 null cells; 1.0 and 10 nM siRNA, up to 4 days, compared with p53 wt
  growth inhibition, p53 null HCT-116: equally growth inhibitory
Wt HCT-116 cells; 1.0 and 10 nM siRNA, up to 4 days, compared with p53 null
  growth inhibition, p53 wt HCT-116: equally growth inhibitory
A549 cells; 10 nM siRNA, DNA content 96 hours after transfection
  Growth Inhibition in A549 cells: ++ (inhibits by at least 75%)
A549 cells; 1 and 10 nM siRNA, measured daily for up to ten days
  duration of growth inhibition post-transfection, A549: at least 10 days

## SEQ ID NO: 4976: MDR1-specific siRNA (ABCB1) (chain 1 TTAGCTTCCAACCACGTGTAAATCC; chain 2 UUAGCUUCCAACCACGUGUAAAUCC; chemistry not given here; one strand in two spellings)
HCT-15 cells
  sensitivity to doxorubicin, HCT-15: more sensitive
  sensitivity to etoposide, HCT-15: more sensitive
  sensitivity to paclitaxel, HCT-15: more sensitive
A549 cells; A549 cells, 10 nM siRNA, DNA content 96 hours after transfection, transporter gene targets
  Growth Inhibition in A549 cells by 10 nM siRNA: − (no growth inhibition)
[1]; 0.1 nM siRNA
  mRNA knockdown of transporter gene target transcript, 0.1 nM: − (<50% mRNA knockdown)
[1]; 1 nM siRNA
  mRNA knockdown of transporter gene target transcript, 1 nM: − (<50% mRNA knockdown)

## SEQ ID NO: 4981: siRNA targeting YBX1 (chain 1 TGGATAGCGTCTATAATGGTTACGG; chain 2 UGGAUAGCGUCUAUAAUGGUUACGG; chemistry not given here; one strand in two spellings)
SK-Mel-5 cells; [2]
  growth inhibition, SK-Mel-5 cells: ++ (At least 50% inhibition)
YBX1 mRNA
  YBX1-specific reduction of mRNA levels in A549 cells: ++ (At least 50% inhibition)
A549 cells; [2]
  growth inhibition, A549 cells: + (At least 20% inhibition)

## SEQ ID NO: 5110: p53-targeting Stealth siRNA (chain 1 GCCAAGTCTGTGACTTGCACGTACT; chain 2 GCCAAGUCUGUGACUUGCACGUACU; Stealth siRNA, chemical pattern not given here; one strand in two spellings) [reference compound]
SK-Mel-5 cells; [3]
  effect of p53 siRNA co-transfection on YBX1 siRNA-mediated growth inhibition, SK-MeI-5: completely ablated growth inhibition
HCT-116 p53 null cells; [3]
  effect of p53 siRNA co-transfection on YBX1 siRNA-mediated growth inhibition, HCT-116−/−p53: only partial abrogation of growth inhibition
Wt HCT-116 cells; [3]
  effect of p53 siRNA co-transfection on YBX1 siRNA-mediated growth inhibition, wt HCT-116: only partial abrogation of growth inhibition
A549 cells; 5 nM p53 siRNA with 5 nM YBX1 siRNA SEQ ID NO: 4982
  effect of p53 siRNA co-transfection on YBX1 siRNA-mediated growth inhibition, A549: only partial abrogation of growth inhibition
